Measured values published in US20070191316A1, “VITAMIN D ANALOG - NEL, METHODS AND USES THEREOF” (WISCONSIN ALUMNI RESEARCH FOUNDATION, priority 2006, published 2007).
Entries after “also recorded” stand apart in the source; their conditions may differ.

Tests used:
[1] = cited from earlier work; for calcemic activity as compared to 1α,25-dihydroxyvitamin D3: prior-art patents
cell differentiation = conditions: prior art; cited from earlier work
vitamin D receptors = biological target: T1, vitamin D receptors (Homo sapiens, UniProt P11473); conditions: prior-art patents; cited from earlier work
T1 sequence (P11473 1-427): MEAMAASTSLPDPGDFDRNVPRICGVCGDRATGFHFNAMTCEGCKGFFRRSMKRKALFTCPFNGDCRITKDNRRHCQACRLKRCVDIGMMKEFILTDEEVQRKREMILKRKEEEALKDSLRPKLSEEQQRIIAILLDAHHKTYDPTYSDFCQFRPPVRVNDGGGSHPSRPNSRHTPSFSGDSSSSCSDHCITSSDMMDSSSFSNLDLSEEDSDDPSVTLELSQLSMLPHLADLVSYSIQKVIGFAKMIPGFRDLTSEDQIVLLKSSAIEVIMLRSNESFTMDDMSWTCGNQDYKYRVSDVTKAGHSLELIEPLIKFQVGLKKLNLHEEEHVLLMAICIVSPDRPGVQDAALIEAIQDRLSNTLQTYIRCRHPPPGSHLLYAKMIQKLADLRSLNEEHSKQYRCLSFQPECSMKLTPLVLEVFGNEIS

[2] = Intestinal calcium transport (everted gut sac method); type: in vivo, Sprague-Dawley rats; conditions: rats, four consecutive ip doses; equimolar or 27 times the dose of 1α,25-dihydroxyvitamin D3; FIG. 3
Excerpt: FIG. 3 is a bar graph comparing the intestinal calcium transport activity of NEL with that of 1,25(OH)2D3.
(§1) (D) Intestinal Calcium Transport and Bone Calcium Mobilization
(§2) Male, weanling Sprague-Dawley rats were placed on Diet 11 (0.47% Ca) diet+AEK for one week followed by Diet 11 (0.02% Ca)+AEK for 3 weeks. The rats were then switched to a diet containing 0.47% Ca for one week followed by two weeks on a diet containing 0.02% Ca. Dose administration began during the last week on 0.02% calcium diet. Four consecutive ip doses were given approximately 24 hours apart. Twenty-four hours after the last dose, blood was collected from the severed neck and the concentration of serum calcium determined as a measure of bone calcium mobilization. The first 10 cm of the intestine was also collected for intestinal calcium transport analysis using the everted gut sac method.

[3] = biological target: T2, full-length recombinant rat vitamin D receptor (Rattus norvegicus, UniProt P13053); test: Vitamin D receptor competitive binding with [3H]-1,25-(OH)2-D3; conditions: competition with [3H]-1,25-(OH)2-D3, recombinant rat receptor; FIG. 1
T2 construct: Full-length recombinant rat receptor was expressed in E. coli BL21(DE3) Codon Plus RIL cells; histidine tag (C); made in house; host or cells: E. coli BL21(DE3) Codon Plus RIL
T2 sequence (P13053 1-423): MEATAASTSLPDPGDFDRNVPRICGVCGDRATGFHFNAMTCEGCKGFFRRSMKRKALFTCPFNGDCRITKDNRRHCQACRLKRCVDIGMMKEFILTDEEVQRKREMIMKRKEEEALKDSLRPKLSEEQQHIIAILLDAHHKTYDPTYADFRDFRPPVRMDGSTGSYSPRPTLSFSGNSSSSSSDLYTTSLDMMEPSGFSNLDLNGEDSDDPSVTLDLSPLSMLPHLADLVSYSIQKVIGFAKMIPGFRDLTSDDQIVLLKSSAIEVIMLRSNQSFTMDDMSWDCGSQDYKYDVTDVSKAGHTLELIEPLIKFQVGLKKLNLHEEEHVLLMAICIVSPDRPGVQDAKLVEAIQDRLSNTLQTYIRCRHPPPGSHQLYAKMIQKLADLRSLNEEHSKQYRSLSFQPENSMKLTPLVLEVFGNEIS
Experimental: The first system was a nickel affinity resin that utilizes the C-terminal histidine tag on this protein. The protein that was eluted from this resin was further purified using ion exchange chromatography (S-Sepharose Fast Flow). Aliquots of the purified protein were quick frozen in liquid nitrogen and stored at −80° C. until use. For use in binding assays, the protein was diluted in TEDK50 (50 mM Tris, 1.5 mM EDTA, pH7.4, 5 mM DTT, 150 mM KCl) with 0.1% Chaps detergent. The receptor protein and ligand concentration was optimized such that no more than 20% of the added radiolabeled ligand was bound to the receptor.
The following day, 100 mcl of hydroxylapatite slurry (50%) was added to each tube and mixed at 10-minute intervals for 30 minutes. The hydroxylapaptite was collected by centrifugation and then washed three times with Tris-EDTA buffer (50 mM Tris, 1.5 mM EDTA, pH 7.4) containing 0.5% Titron X-100. After the final wash, the pellets were transferred to scintillation vials containing 4 ml of Biosafe II scintillation cocktail, mixed and placed in a scintillation counter. Total binding was determined from the tubes containing only radiolabeled ligand.

[4] = system: 24-hdyroxylase (24Ohase) gene promoter in ROS 17/2.8 (bone) cells; test: In vitro transcription assay (luciferase reporter); type: cell-based; conditions: Ros17/2.8 (bone) cells, 24-hydroxylase promoter-luciferase, 16 h; FIG. 5
Experimental: FIG. 5 is a graph comparing the in vitro transcription activity of NEL with that of 1,25(OH)2D3.
(C) In vitro Transcription Assay
Transcription activity was measured in ROS 17/2.8 (bone) cells that were stably transfected with a 24-hdyroxylase (24Ohase) gene promoter upstream of a luciferase reporter gene (Arbour et al., 1998). Cells were given a range of doses. Sixteen hours after dosing the cells were harvested and luciferase activities were measured using a luminometer. (RLU=relative luciferase units)

[5] = PTH suppression and hypercalcemia; type: in vivo, Sprague-Dawley rats; conditions: normal rats; expected
Experimental: (E) PTH Suppression and Hypercalcemia
Adult, female Sprague-Dawley rats are obtained from Harlan (Madison, Wis.).
Upon receipt, the animals are identified by individual tail marks. Animals may then be housed in suspended, stainless steel, wire-bottom cages. Each cage may contain one animal. The animal rooms are maintained at a temperature of 68 to 72° F. and a relative humidity of 25 to 75%. The holding rooms are set to provide 12 hours of light per day. Water and a purified rodent diet (Suda et al., Purified Rodent Diet-Diet 11) containing […] 0.3% phosphorus and fat soluble vitamins A, D, E and K are provided ad libitum
Animals are randomly assigned to treatment groups (5 animals/group). All doses are administered intraperitoneally in 100 microliters of propylene glycol. […]
Twenty-four hours after the final dose, blood is collected from the tail artery and the concentration of bioactive serum PTH is measured using the rat BioActive Intact PTH ELISA Kit from Immutopics, Inc. (San Clemente, Calif.).
Twenty-four hours after the final dose, approximately 1 ml of blood is collected from the tail artery of each experimental animal. […] The level of calcium is determined by diluting the serum into 0.1% lanthum chloride and measuring the absorbance on an atomic absorption spectrophotometer (Perkin Elmer Model 3110, Shelton, Conn.).

[6] = system: Human promyelocytic leukemia (HL60) cells; test: HL-60 differentiation (nitro blue tetrazolium reduction); type: cell-based; conditions: 4 days, NBT reduction, FIG. 4
Experimental: FIG. 4 is a graph comparing the percent HL-60 cell differentiation as a function of the concentration of NEL with that of 1,25(OH)2D3.
(B) HL-60 Differentiation
The study drugs were dissolved in ethanol and the concentrations determined using UV spectrophotometry. Serial dilutions were prepared so that a range of drug concentrations could be tested without changing the final concentration of ethanol (≦0.2%) present in the cell cultures.
Human promyelocytic leukemia (HL60) cells were grown in RPMI-1640 medium containing 10% fetal bovine serum. The cells were incubated at 37° C. in the presence of 5% CO2.
HL60 cells were plated at 1.2×10^5 cells/ml. Eighteen hours after plating, cells in duplicate were treated with drug. Four days later, the cells were harvested and a nitro blue tetrazolium reduction assay was performed (Collins et al., 1979; J. Exp. Med. 149:969-974). The percentage of differentiated cells was determined by counting a total of 200 cells and recording the number that contained intracellular black-blue formazan deposits. Verification of differentiation to monocytic cells was determined by measuring phagocytic activity (data not shown).

[7] = Bone calcium mobilization (serum calcium); type: in vivo, Sprague-Dawley rats; conditions: rats, four consecutive ip doses; equimolar or 27 times the dose of 1α,25-dihydroxyvitamin D3; FIG. 2
Excerpt: FIG. 2 is a bar graph comparing the bone calcium mobilization activity of NEL with that of 1,25(OH)2D3.
as §1, §2

Compound	calcemic activity as compared to 1α,25-dihydroxyvitamin D3 [1]	cell differentiation activity (cell differentiation)	binding activity to vitamin D receptors (vitamin D receptors)	also measured
1α-hydroxy-2-methylene-19-nor-bishomopregnacalciferol	little if any	relatively high	relatively high	
C=C1[C@H](O)CC(=C/C=C2\CCC[C@]3(C)[C@@H]([C@H](C)CCCC(C)O)CC[C@@H]23)C[C@H]1O (stereo partly drawn) [NEL, (20R, 25S)-2-Methylene-19,26-dinor-1α,25-dihydroxyvitamin D3]				intestinal calcium transport activity compared with 1α,25-dihydroxyvitamin D3 [2]: limited calcemic activity; also recorded: very low intestinal calcium transport activity; binding to the vitamin D receptor compared with 1α,25-dihydroxyvitamin D3 [3]: somewhat more active; also recorded: relatively high binding; stimulating transcription of a reporter gene compared with 1α,25-dihydroxyvitamin D3 [4]: equally active; suppressing parathyroid hormone levels [5]: significant activity; inducing differentiation of HL-60 cells compared with 1α,25-dihydroxyvitamin D3 [6]: equally active; bone calcium mobilization (serum calcium) compared with 1α,25-dihydroxyvitamin D3 [7]: limited calcemic activity; also recorded: very low ability to mobilize calcium from bone
1α-hydroxy-2-methylene-19-nor-(20S)-homopregnacalciferol	little if any	relatively high	relatively high	
C[C@H](CCCC(C)(C)O)[C@H]1CC[C@H]2/C(=C/C=C3C[C@@H](O)C[C@H](O)C3)CCC[C@]12C [1α,25-dihydroxy-19-nor-vitamin D3]		high potency		calcium mobilizing activity ([1]; prior art): very low
C=C1[C@H](O)CC(=C/C=C2\CCC[C@]3(C)[C@@H](CC)CC[C@@H]23)C[C@H]1O [1α-hydroxy-2-methylene-19-nor-pregnacalciferol]	little if any	relatively high	relatively high	
